The values below come from ChEMBL document CHEMBL5215002, “Selective Inhibition of PTP1B by New Anthraquinone Glycosides from Knoxia valerianoides” (J Nat Prod, 2022).

Calls of active or inactive are those of the source. The rule behind the calls is not given here. Bounds are passed on as bounds.

Assay [1] addresses T1, Tyrosine-protein phosphatase non-receptor type 2 (Homo sapiens, UniProt P17706).
T1 sequence (P17706 whole entry): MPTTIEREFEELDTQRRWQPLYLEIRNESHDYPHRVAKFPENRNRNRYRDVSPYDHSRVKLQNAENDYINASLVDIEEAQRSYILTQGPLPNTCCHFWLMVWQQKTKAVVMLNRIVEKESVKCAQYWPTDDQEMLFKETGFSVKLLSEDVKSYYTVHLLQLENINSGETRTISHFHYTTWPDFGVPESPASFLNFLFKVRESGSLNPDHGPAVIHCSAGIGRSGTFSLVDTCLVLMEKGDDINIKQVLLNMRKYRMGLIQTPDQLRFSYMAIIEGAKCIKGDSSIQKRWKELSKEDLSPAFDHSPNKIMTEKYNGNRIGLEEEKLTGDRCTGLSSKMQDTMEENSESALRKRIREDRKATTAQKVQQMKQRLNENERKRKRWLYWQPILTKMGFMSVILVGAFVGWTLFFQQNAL
Briefly: Inhibition of recombinant human TCPTP (1 to 314 residues) expressed in baculovirus-insect cells.

For assay [2], the target named is T2, Tyrosine-protein phosphatase non-receptor type 1 (Homo sapiens, UniProt P18031).
T2 sequence (P18031 whole entry): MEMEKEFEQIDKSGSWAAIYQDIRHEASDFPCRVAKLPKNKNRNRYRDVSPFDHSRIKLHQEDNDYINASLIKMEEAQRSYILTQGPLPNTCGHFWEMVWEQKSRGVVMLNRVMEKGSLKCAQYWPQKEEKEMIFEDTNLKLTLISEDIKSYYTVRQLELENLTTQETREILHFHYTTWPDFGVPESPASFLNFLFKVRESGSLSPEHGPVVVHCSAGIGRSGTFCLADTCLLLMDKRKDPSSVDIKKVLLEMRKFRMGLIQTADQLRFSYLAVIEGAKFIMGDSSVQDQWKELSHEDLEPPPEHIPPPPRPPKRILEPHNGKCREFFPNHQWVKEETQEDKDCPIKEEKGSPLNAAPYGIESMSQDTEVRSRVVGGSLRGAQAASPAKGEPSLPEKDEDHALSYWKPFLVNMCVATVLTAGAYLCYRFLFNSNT
The experiment in a line: Inhibition of N-terminal His-tagged recombinant human PTP1B expressed in Escherichia coli.

In assay [3] the target is T3, Tyrosine-protein phosphatase non-receptor type 2 (Homo sapiens) (UniProt P17706).
T3 sequence (whole entry): T1 sequence (P17706 whole entry)
The experiment in a line: Inhibition of recombinant human TCPTP (1 to 314 residues) expressed in baculovirus-insect cells at 100 uM relative to control.

The next assay is filed under the species Homo sapiens. Briefly: Selectivity index, ratio of IC50 for inhibition of recombinant human TCPTP (1 to 314 residues) expressed in baculovirus infected insect cells to IC50 for inhibition of N-terminal His-tagged recombinant human PTP1B expressed in Escherichia coli.
Assay [4] addresses T4, Tyrosine-protein phosphatase non-receptor type 1 (Homo sapiens) (UniProt P18031).
T4 sequence (whole entry): T2 sequence (P18031 whole entry)
The experiment in a line: Mixed type inhibition of N-terminal His-tagged recombinant human PTP1B expressed in Escherichia coli assessed as reduction in Vmax with increase in Km using varying concentrations of pNPP as substrate preincubated for 15 mins followed by substrate addition and measured after 15 mins by Lineweaver-Burk plot analysis. The following applies: time 30.0 min.

Assay [5] addresses T2, Tyrosine-protein phosphatase non-receptor type 1. The experiment in a line: Mixed type inhibition of N-terminal His-tagged recombinant human PTP1B expressed in Escherichia coli using pNPP as substrate assessed as inhibition constant preincubated for 15 mins followed by substrate addition and measured after 15 mins by Dixon plot analysis.

On to `COc1ccc2c(c1)C(=O)c1cc(O[C@@H]3O[C@H](CO)[C@@H](O)[C@H](O)[C@H]3O)c(CO)c(O)c1C2=O`, for which the IC50 in assay [1] was over 100 µM; in assay [2], 1.56 µM. For the same compound, in assay [3], the inhibition was under 20%. For the same compound, the Ratio IC50 in the assay filed under Homo sapiens is 64.1.

With `COc1ccc2c(c1)C(=O)c1cc(O[C@@H]3O[C@H](CO[C@@H]4OC[C@@H](O)[C@H](O)[C@H]4O)[C@@H](O)[C@H](O)[C@H]3O)c(CO)c(O)c1C2=O`, the concentration for half-maximal inhibition (IC50) in assay [1] is over 100 µM; in assay [2], 11.3 µM. Further, the inhibition in assay [3] was under 20%. In the assay listed under Homo sapiens, the Ratio IC50 was found to be 8.9.

As for `COc1ccc2c(c1)C(=O)c1cc(O[C@@H]3O[C@H](CO[C@@H]4OC[C@@H](O)[C@H](O)[C@H]4O)[C@@H](O)[C@H](O)[C@H]3O)c(C)c(O)c1C2=O`, the IC50 in assay [2] stood at 9.04 µM.

Take `Cc1c(O[C@@H]2O[C@H](CO[C@@H]3OC[C@@H](O)[C@H](O)[C@H]3O)[C@@H](O)[C@H](O)[C@H]2O)cc2c(c1O)C(=O)c1ccccc1C2=O`: the IC50 in assay [2] came to 13.7 µM.

On to `COc1ccc2c(c1O)C(=O)c1cc(O[C@@H]3O[C@H](CO[C@@H]4OC[C@@H](O)[C@H](O)[C@H]4O)[C@@H](O)[C@H](O)[C@H]3O)c(C)c(O)c1C2=O`, for which the IC50 in assay [1] is over 100 µM; in assay [2] it was 7.28 µM. The inhibition in assay [3] amounted to 40%. In addition, the Ratio IC50 in the assay listed under Homo sapiens was 13.7.

Consider `COc1ccc2c(c1O)C(=O)c1cc(O[C@@H]3O[C@H](CO[C@@H]4OC[C@@H](O)[C@H](O)[C@H]4O)[C@@H](O)[C@H](O)[C@H]3O)c(CO)c(O)c1C2=O`, for which the IC50 in assay [2] stood at 3.52 µM.

Take SODIUM ORTHOVANAD: the Ratio IC50 in the assay listed under Homo sapiens was 0.67.

Turning to `COc1ccc2c(c1)C(=O)c1cc(O)c(CO[C@@H]3O[C@H](CO[C@@H]4OC[C@@H](O)[C@H](O)[C@H]4O)[C@@H](O)[C@H](O)[C@H]3O)c(O)c1C2=O`, the IC50 in assay [2] turned out to be 7.52 µM.

Take `COc1ccc2c(c1O)C(=O)c1cc(O[C@@H]3O[C@H](CO)[C@@H](O)[C@H](O)[C@H]3O)c(CO)c(O)c1C2=O`: the IC50 in assay [2] was found to be 3.05 µM.

Take `Cc1c(O[C@@H]2O[C@H](CO[C@@H]3OC[C@@H](O)[C@H](O)[C@H]3O)[C@@H](O)[C@H](O)[C@H]2O)cc2c(c1O)C(=O)c1ccc(O)c(O)c1C2=O`: the IC50 in assay [1] turned out to be 78 µM; in assay [2], 1.05 µM. The inhibition result in assay [4] is “Active”. For the same compound, the Ki in assay [5] is 1.21 µM. The Ratio IC50 in the assay filed under Homo sapiens was found to be 74.3.

In the case of `O=C1c2ccccc2C(=O)c2c1cc(O[C@@H]1O[C@H](CO)[C@@H](O)[C@H](O)[C@H]1O)c(CO)c2O`, the IC50 in assay [2] was 10.8 µM.

Consider `O=C1c2ccccc2C(=O)c2c1cc(O)c(CO[C@@H]1O[C@H](CO)[C@@H](O)[C@H](O)[C@H]1O)c2O`, for which the IC50 in assay [1] is over 100 µM; in assay [2], 3.86 µM. Besides, the inhibition result in assay [4] was “Active”. Besides, in assay [5], the Ki was determined as 3.02 µM. In addition, the inhibition in assay [3] is under 20%. The Ratio IC50 in the assay listed under Homo sapiens was 25.9.

Usually IC50 stands for the concentration that inhibits the measured activity by half. Broadly, the inhibition is the relative decrease from the control value, in per cent. Broadly, the Ki is a dissociation constant, usually derived from enzyme kinetics or from competition with a known ligand.
